Each compound was assayed against Transcription factor p65 (Homo sapiens) (UniProt Q04206) (assay: Inhibition of NF-kappaB DNA binding by EMSA).
Chain of Transcription factor p65 (Homo sapiens) (Q04206 whole entry): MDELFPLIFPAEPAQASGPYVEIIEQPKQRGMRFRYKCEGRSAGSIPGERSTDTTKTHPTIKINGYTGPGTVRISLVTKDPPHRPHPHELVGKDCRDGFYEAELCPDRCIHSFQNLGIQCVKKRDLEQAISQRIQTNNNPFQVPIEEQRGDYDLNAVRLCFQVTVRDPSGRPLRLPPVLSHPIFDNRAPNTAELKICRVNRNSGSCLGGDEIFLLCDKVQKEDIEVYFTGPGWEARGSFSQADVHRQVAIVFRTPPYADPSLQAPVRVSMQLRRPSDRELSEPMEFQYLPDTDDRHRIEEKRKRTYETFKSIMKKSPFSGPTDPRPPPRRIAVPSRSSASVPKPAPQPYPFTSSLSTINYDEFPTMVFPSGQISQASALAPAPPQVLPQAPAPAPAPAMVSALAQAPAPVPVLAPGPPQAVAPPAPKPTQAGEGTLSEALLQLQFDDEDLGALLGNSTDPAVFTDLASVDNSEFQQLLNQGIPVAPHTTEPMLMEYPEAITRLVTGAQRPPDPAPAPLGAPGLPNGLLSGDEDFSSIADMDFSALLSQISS
With `C=C1C(=O)O[C@@H]2C[C@@]3(C)[C@H](O)CC=C(COC(=O)C(C)C)[C@@H]3C[C@H]12` the IC100 was 50 µM.
With `C=C1C(=O)O[C@@H]2[C@H]1[C@@H](OC(=O)[C@]1(C)O[C@@H]1C)C(=O)[C@@]1(C)C=CC[C@@](C)(O)[C@H]21` the IC100 was 10 µM.
`C=C1C(=O)O[C@@H]2C[C@@]3(C)[C@H](O)CC[C@](O)(COC(=O)C(C)C)[C@@H]3C[C@H]12` gave an IC100 of 200 µM.
`C=C1C(=O)O[C@@H]2/C=C(/C)[C@]3(O)O[C@](C)(C[C@@H](OC(=O)/C(C)=C\C)[C@@H]12)C[C@@H]3O` showed an IC100 of 50 µM.
`C=C1C(=O)O[C@@H]2/C=C(\C)CC/C=C(\C)[C@@H](OC(C)=O)C[C@@H]12` was tested, and the IC100 was 200 µM.
`CC(=O)O[C@H]1[C@@H]2[C@H](C)C(=O)O[C@@H]2C[C@@H](C)[C@@H]2C=CC(=O)[C@]21C` showed an IC100 of 200 µM.
Compound `C=C(C)C(=O)O[C@@H]1/C=C(\C=O)[C@H](OC)CCC(=C)[C@H](O)[C@H]2OC(=O)C(=C)[C@@H]21` has an IC100 of 10 µM.
`C=C1[C@H](O)C[C@H](O)[C@]2(C)CC[C@H]3C(=C)C(=O)O[C@@H]3[C@@H]12` gave an IC100 of 100 µM.
With `C=C(C)C(=O)O[C@H]1[C@H]2C(=C)C(=O)O[C@@H]2[C@@H](O)C(=C)CC/C=C(/C=O)[C@@H]1OC` the IC100 was 50 µM.
Work on `C=C(C)C(=O)O[C@H]1/C(C=O)=C\CC/C(COC(C)=O)=C/[C@H]2OC(=O)C(=C)[C@@H]2[C@@H]1O` yielded an IC100 of 5 µM.
With `C=C1C(=O)O[C@H]2C[C@@H](C)[C@@H]3C=CC(=O)[C@@]3(C)[C@H](O)[C@H]12` the IC100 was 20 µM.
In the case of `C=C1C(=O)O[C@]23C[C@H]1CCC(CO)=C2C(=O)C=C3C`, the IC100 is reported as 50 µM.
Work on `C=C(C)C(=O)O[C@@H]1/C=C(\C=O)CCCC(=C)[C@H](O)[C@H]2OC(=O)C(=C)[C@@H]21` yielded an IC100 of 10 µM.
Work on `C=C1C(=O)O[C@@H]2C[C@H](C)[C@@]3(O)CC[C@@](C)(C[C@@H](OC(=O)C(C)C)[C@@H]12)O3` yielded an IC100 of 200 µM.
`C=C1C(=O)O[C@H]2[C@H]1[C@@H](OC(=O)/C(C)=C/C)C/C(C)=C/C(=O)/C=C(/C)[C@@H]2O` gave an IC100 of 10 µM.
`C=C1C(=O)O[C@@H]2C[C@H](C)[C@@H]3CC(=O)C(C)=C3C[C@H]12` gave an IC100 of 50 µM.
`C=C1C(=O)O[C@H]2C/C(CO)=C/CC/C(COC(=O)C(C)CO)=C/C[C@H]12` (some centres not stated) was tested, and the IC100 was 100 µM.
`C=C1C(=O)O[C@H]2C[C@H](C)C3=C(C[C@H]12)[C@@H](C)CC3=O` gave an IC100 of 20 µM.
`C=C1C(=O)O[C@H]2C/C(CO)=C/CC/C(COC(=O)C(C)CC)=C/C[C@H]12` (some centres not stated) was tested, and the IC100 was 50 µM.
With `C=C1C(=O)O[C@@H]2C[C@@]3(C)[C@H](O)CC[C@@](O)(COC(=O)C(C)C)[C@@H]3C[C@H]12` the IC100 was 200 µM.
In the case of `C=C1C(=O)O[C@@H]2[C@H]3C(C)=C(Cl)C(=O)C3=C(C)CC[C@@H]12`, the IC100 is reported as 20 µM.
Compound `C=C1C(=O)O[C@@H]2[C@H]3C(C)=CC(=O)C3=C(C)CC[C@@H]12` has an IC100 of 50 µM.
With `C=C1C(=O)O[C@@H]2C[C@@]3(C)[C@H](OC(C)=O)CC[C@](O)(COC(=O)C(C)C)[C@@H]3C[C@H]12` the IC100 was 100 µM.
`C=C1C(=O)O[C@H]2[C@H]1CCC(C)=C1C(=O)[C@H]3O[C@@]3(C)[C@@H]12` was tested, and the IC100 was 5 µM.
Work on `C=C1C(=O)O[C@@H]2[C@H]3C(CO)=CC(=O)C3=C(C)CC[C@@H]12` yielded an IC100 of 50 µM.
With `C=C1C(=O)O[C@@H]2[C@@H]3[C@@](C)(CC[C@@H]12)[C@@H](O)C[C@H]1O[C@@]31C` the IC100 was 200 µM.
`C=C(C)C(=O)O[C@@H]1CC(C)=C2C(=O)C=C(C)[C@@H]2[C@H]2OC(=O)C(=C)[C@@H]21` showed an IC100 of 10 µM.
Work on `C=C(C)C(=O)O[C@H]1C[C@@]2(C)OC(=CC2=O)/C(CO)=C\[C@H]2OC(=O)C(=C)[C@H]12` yielded an IC100 of 20 µM.
`C=C1C(=O)O[C@@H]2C[C@@H](C)[C@@H]3C=CC(=O)[C@@]3(C)[C@H](OC(=O)C(C)CC)[C@H]12` (some centres not stated) was tested, and the IC100 was 10 µM.
Work on `C=C(C)C(=O)O[C@H]1C/C(C)=C/C(=O)/C=C(/C)[C@H](O)[C@H]2OC(=O)C(=C)[C@@H]21` yielded an IC100 of 10 µM.
For `C=C1C(=O)O[C@@H]2C[C@H](C)C3=C(C[C@H]12)[C@@H](C)CC3=O`, the IC100 was 20 µM.
For `C=C(C)C(=O)O[C@H]1C[C@@]2(C)OC(=CC2=O)C(=C)[C@@H](O)[C@H]2OC(=O)C(=C)[C@@H]21`, the IC100 was 10 µM.
Compound `C=C1C(=O)O[C@@H]2/C=C(/CO)C3=CC(=O)[C@@](C)(C[C@@H](OC(=O)/C(C)=C/C)[C@@H]12)O3` has an IC100 of 5 µM.
Work on `C=C(C)C(=O)OC/C1=C\C[C@@H]2C(=C)C(=O)O[C@H]2C/C(CO)=C/CC1` yielded an IC100 of 50 µM.
For `C=C1C(=O)O[C@@H]2/C=C(/CO)[C@@]3(O)CC[C@@](C)(C[C@@H](OC(=O)/C(C)=C\C)[C@@H]12)O3`, the IC100 was 20 µM.
`C=C1C[C@@H]2OC(=O)C(=C)[C@H]2[C@H](O)/C=C(\C)CCC1=O` was tested, and the IC100 was 50 µM.
With `C=C(C)C(=O)O[C@@H]1C[C@]2(C)CC[C@@](OC)(O2)/C(C)=C\[C@H]2OC(=O)C(=C)[C@@H]21` the IC100 was 200 µM.
`C=C1C(=O)O[C@@H]2C[C@@H](C)[C@@H]3[C@H](OCC)CC(=O)[C@@]3(C)[C@H](OC(C)=O)[C@H]12` was tested, and the IC100 was 50 µM.
`C=C1C(=O)O[C@@H]2[C@H]3C(C)=CC(=O)C3=C(C)C[C@@H](OC(=O)[C@]3(C)O[C@@H]3C)[C@@H]12` was tested, and the IC100 was 20 µM.
Compound `C=C1C(=O)O[C@H]2[C@H]1[C@@H](OC(=O)/C(C)=C/C)C/C(C)=C\[C@@]1(OC)C=C(C)[C@@H]2O1` has an IC100 of 10 µM.
Compound `C=C(C)C(=O)O[C@@H]1/C=C(/C=O)CCC[C@@]2(CO2)[C@H](O)[C@H]2OC(=O)C(=C)[C@@H]21` has an IC100 of 5 µM.
With `C=C1C(=O)O[C@@H]2/C=C(\C)[C@H](OC(C)=O)C/C=C(/C)CC[C@@H]12` the IC100 was 50 µM.
`C=C1C(=O)O[C@H]2[C@H]1[C@H](OC(=O)/C(C)=C\C)C[C@@]1(C)OC(=CC1=O)C(=C)[C@@H]2O` gave an IC100 of 10 µM.
Work on `C=C(C)C(=O)O[C@H]1C/C(C)=C\[C@@]2(OC)C=C(C)[C@H](O2)[C@H]2OC(=O)C(=C)[C@@H]21` yielded an IC100 of 10 µM.
For `C=C(C)C(=O)O[C@@H]1/C=C(/C=O)CCCC(=C)[C@H](O)[C@H]2OC(=O)C(=C)[C@@H]21`, the IC100 was 5 µM.
`C=C1C(=O)O[C@@H]2[C@H]3C(C)=CC[C@@H](O)[C@]3(C)CC[C@@H]12` showed an IC100 of 100 µM.
In the case of `C=C1C(=O)O[C@@H]2C[C@@H](C)[C@@H]3C=CC(=O)[C@@]3(C)[C@@H](O)[C@H]12`, the IC100 is reported as 10 µM.
With `C=C(C)C(=O)O[C@@H]1[C@@H]2C(=C)C(=O)O[C@@H]2C[C@@H](C)[C@@H]2C=CC(=O)[C@@]12C` the IC100 was 5 µM.
Compound `C=C(C)C(=O)O[C@H]1[C@H]2C(=C)C(=O)O[C@@H]2[C@@H](O)C(=C)CC/C=C(/C=O)[C@@H]1OC(C)=O` has an IC100 of 10 µM.
In the case of `C=C1[C@@H]2[C@H]3OC(=O)C(=C)[C@@H]3CCC(=C)[C@@H]2C[C@@H]1OC(=O)C=C(C)C`, the IC100 is reported as 200 µM.
Compound `C=C1C(=O)O[C@H]2/C=C(\C)CC/C=C(/C)C(=O)[C@H](OC(=O)[C@@]3(C)O[C@H]3C)[C@@H]12` has an IC100 of 50 µM.
Work on `C=C1C(=O)O[C@@H]2/C=C(/C)C3=CC(=O)[C@@](C)(C[C@@H](OC(=O)/C(C)=C\C)[C@@H]12)O3` yielded an IC100 of 5 µM.
With `C=C(C)C(=O)O[C@H]1[C@H]2C(=C)C(=O)O[C@@H]2[C@@H]2O[C@]2(C)CC/C=C(/C=O)[C@@H]1O` the IC100 was 10 µM.
`C=C1C(=O)O[C@]23C[C@H]1CCC(COC(C)=O)=C2C(=O)C=C3C` gave an IC100 of 100 µM.
Work on `C=C(C)C(=O)O[C@H]1[C@H]2C(=C)C(=O)O[C@@H]2/C=C(\C)CC/C=C(/C=O)[C@@H]1O` yielded an IC100 of 10 µM.
Work on `C=C1CCC=C(C)[C@@]2(O)[C@H](OC(=O)[C@]3(C)O[C@@H]3C)[C@@H]3[C@@H](OC(=O)[C@@H]3C)[C@H]12` yielded an IC100 of 200 µM.
For `CC[C@@H](C)[C@@]1(O)O[C@H]2C[C@@]3(C)OC(=CC3=O)/C(COC(C)=O)=C\[C@H]3OC(=O)[C@@]1(C)C23` (some centres not stated), the IC100 was 5 µM.

— ChEMBL document CHEMBL1146082, “Development of a structural model for NF-kappaB inhibition of sesquiterpene lactones using self-organizing neural networks” (J Med Chem, 2006)
